# Values quoted from earlier work as cited in US20220082565A1, “THE FGF19-CHOLESTYRAMINE (F-CME) TEST AS A TWO-STAGE METHOD FOR ROUTINE CANCER SCREENING” (UNIVERSITY OF CENTRAL FLORIDA RESEARCH FOUNDATION, INC., priority 2020, published 2022).
# System: FGF19 transcripts
# Settings: physiological concentrations of bile acids, explants of ileal mucosa
smiles,measurement,value
CC(CCC(=O)NCC(=O)O)C1CCC2C3C(O)CC4CC(O)CCC4(C)C3CCC12C (centres unmarked) [glycochenodeoxycholic acid],stimulation of human FGF19 transcripts,approximately 300 fold
C[C@H](CCC(=O)O)[C@H]1CC[C@H]2[C@@H]3[C@H](O)C[C@@H]4C[C@H](O)CC[C@]4(C)[C@H]3CC[C@]12C [chenodeoxycholic acid],stimulation of human FGF19 transcripts,approximately 300 fold
